This note sets out measurements from patent publication EP3095787A1, “[…] ACTIVE COMPOUNDS AS DAG-LIPASE INHIBITORS” (Universiteit Leiden, priority 2015, dated 2016).

The target of the assay is T1, FAAH (Mus musculus, UniProt O08914).
T1 construct: For gel based ABPP experiments mouse brain proteome (2.0 mg/mL, 20 µL) was preincubated; from tissue; host or cells: mouse brain proteome
T1 sequence (O08914 1-579): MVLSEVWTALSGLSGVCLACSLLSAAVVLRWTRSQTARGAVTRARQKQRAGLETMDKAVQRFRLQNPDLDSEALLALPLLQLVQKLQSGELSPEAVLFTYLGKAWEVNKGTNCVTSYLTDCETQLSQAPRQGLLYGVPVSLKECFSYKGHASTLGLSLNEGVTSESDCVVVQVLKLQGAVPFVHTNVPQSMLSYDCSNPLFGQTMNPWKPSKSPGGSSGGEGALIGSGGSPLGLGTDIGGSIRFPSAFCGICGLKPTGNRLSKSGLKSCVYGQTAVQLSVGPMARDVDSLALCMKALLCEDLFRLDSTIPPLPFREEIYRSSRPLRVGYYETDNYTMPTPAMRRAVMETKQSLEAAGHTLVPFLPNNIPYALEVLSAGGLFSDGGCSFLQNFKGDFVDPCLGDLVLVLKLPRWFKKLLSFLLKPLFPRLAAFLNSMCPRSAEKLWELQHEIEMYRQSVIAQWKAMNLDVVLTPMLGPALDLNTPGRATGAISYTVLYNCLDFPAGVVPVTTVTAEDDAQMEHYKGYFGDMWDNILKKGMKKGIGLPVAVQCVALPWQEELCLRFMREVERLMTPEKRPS
Nature of the assay: Gel based competitive ABPP selectivity assay with TAMRA-FP in mouse brain proteome (FAAH band). Particulars: for FAAH ABPP (10 µm) % Eff.: 10 µM inhibitor, TAMRA-FP 500 nM, mouse brain proteome, vehicle set to 100%. In kind it is biochemical. The procedure:
For gel based ABPP experiments mouse brain proteome (2.0 mg/mL, 20 µL) was preincubated for 30 min with vehicle (DMSO) or compound to be tested in 0.5 µL DMSO at rt. And subsequently treated with 500 nM (final concentration) TAMRA-FP (TAMRA-FP was bought at Thermo Fischer) for 15 minutes at rt. The reactions were quenched with 10 µL standard 3 x SDS page sample buffer. The samples were directly loaded and resolved on SDS page gel (10 % acrylamide). The gels were scanned with a ChemiDoc MP sytem (Biorad, Cy 3 settings, 605/50 filter) and analyzed using Image Lab 4.1.
The percentage effect on FAAH was determined by measuring the integrated optical intensity of the band corresponding to FAAH (∼ 63 kD for mouse) using Image lab software. This activity was corrected for the total protein loading per lane as determined by coomassie staining and imaging with a ChemiDoc™ MP sytem (Biorad) followed by determination of the integrated optical intensity per lane by using Image Lab 4.1 software. The intensity of the protein bands from the samples treated with vehicle was set to 100%. […] N/A means less than 50% probe displacement at 10 µM inhibitor concentration.

With `O=C(CCCCCc1ccccc1)c1nc2ncccc2o1` [Compound 1, 1-(Oxazolo[4,5-b]pyridin-2-yl)-6-phenylhexan-1-one, reference compound], the “FAAH ABPP (10 µm) % Eff.” value is 99%.

As for `Cc1ccc(-c2cnc3nc(C(=O)CCCCCc4ccccc4)oc3c2)cc1` [Compound 25, 1-(6-(p-Tolyl)oxazolo[4,5-b]pyridin-2-yl)-6-phenylhexan-1-one], the “FAAH ABPP (10 µm) % Eff.” value is given as “N/A (N/A means less than 50% probe displacement at 10 µM inhibitor concentration)”. In addition, where the note is “up to a concentration of 10 µM, n=3”, the FAAH labeling entry is “did not block FAAH labeling”.
